The source of these data is patent US20240383915A1, “OXAZEPINE COMPOUNDS AND USES THEREOF IN THE TREATMENT OF CANCER” (Genentech, Inc., priority 2021, published 2024).

The target of one assay is KRas(G12V) (Homo sapiens (Human), UniProt P01116, G12V). The assay is described as follows: KRas(G12V) GDP HTRF (BODIPY-GDP exchange TR-FRET). Format: biochemical. A general note: TR-FRET usually uses a lanthanide donor and a delayed reading to cut background.
Another assay has as its system SW480 cells. The assay is described as follows: SW480 proliferation assay. Format: cell-based. Conditions: read-out: SW480 Prolif IC50 (G12V).
The next assay concerns the target KRas (Homo sapiens (Human), UniProt P01116). Nature of the assay: KRas GDP HTRF (BODIPY-GDP exchange TR-FRET). Format: biochemical. The method in brief: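 Inhibition of SOS1-mediated exchange of BODIPY-GDP on KRAS G12D, started with 3 nM recombinant human SOS1 and 300 nM BODIPY-GDP and read after 60 min. TR-FRET excitation 337 nm, ratio 520/490 nm ×10,000. IC50 from 4-parameter Hill fit of normalized data.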

For another assay, the system named is PC-9 cells. The assay is described as follows: PC9 proliferation assay. Conditions: read-out: PC9 Prolif IC50 (G12V). Format: cell-based, human.

Where two headings read alike, the source gives them in different places.

Chain of KRas (P01116-2 other isoform, or with tags, fused parts or gaps): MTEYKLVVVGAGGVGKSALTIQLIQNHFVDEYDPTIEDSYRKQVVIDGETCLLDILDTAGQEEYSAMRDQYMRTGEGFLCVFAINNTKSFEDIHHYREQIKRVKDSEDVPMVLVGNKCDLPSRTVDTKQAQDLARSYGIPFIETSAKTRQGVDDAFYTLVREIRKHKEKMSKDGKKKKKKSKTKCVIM
Chain of KRas(G12V) (P01116-2 other isoform, or with tags, fused parts or gaps G12V): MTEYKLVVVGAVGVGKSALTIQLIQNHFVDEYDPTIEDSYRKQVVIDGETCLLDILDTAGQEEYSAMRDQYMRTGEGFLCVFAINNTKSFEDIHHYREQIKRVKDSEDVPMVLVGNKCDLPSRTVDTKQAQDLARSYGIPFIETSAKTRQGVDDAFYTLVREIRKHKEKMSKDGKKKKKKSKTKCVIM

Regarding `Cc1cc(N)nc(-c2c(Cl)c3c4c(nc(OC[C@@H]5CCCN5CC(F)F)nc4c2F)N([C@H](C)c2cccnc2N)CCO3)c1C(F)(F)F` (atropisomer, axis not shown) [Example 115, 6-((R)-4-((R)-1-(2-aminopyridin-3-yl)ethyl)-8-chloro-2-(((S)-1-(2,2-difluoroethyl)pyrrolidin-2-yl)methoxy)-10-fluoro-5,6-dihydro-4H-[1,4]oxazepino[5,6,7-de]quinazolin-9-yl)-4-methyl-5-(trifluoromethyl)pyridin-2-amine], the IC50 was 0.47 nM against KRas(G12V); 16 nM with SW480 cells (Homo sapiens, SW480, SW480); 0.9 nM against KRas; 15000 nM in the assay with PC-9 cells (Homo sapiens, PC-9, PC9).

Consider `C[C@H](c1cccnc1N)N1CCOc2c(Cl)c(-c3cc(O)cc4ccccc34)c(F)c3nc(OC[C@@]45CCCN4C[C@H](F)C5)nc1c23` [Example 119, 4-(4-((R)-1-(2-aminopyridin-3-yl)ethyl)-8-chloro-10-fluoro-2-(((2R,7aS)-2-fluorotetrahydro-1H-pyrrolizin-7a(5H)-yl)methoxy)-5,6-dihydro-4H-[1,4]oxazepino[5,6,7-de]quinazolin-9-yl)naphthalen-2-ol], for which the IC50 on KRas(G12V) came to 0.05 nM; in the assay on SW480 cells (Homo sapiens, SW480, SW480), 16 nM; against KRas it was 0.14 nM; in the assay with PC-9 cells (Homo sapiens, PC-9, PC9), 3000 nM.

For the compound `Cc1cc(N)nc(-c2c(Cl)c3c4c(nc(OC[C@]56CCN5CC(F)(F)C6)nc4c2F)N([C@H](C)c2cncnc2N)CCO3)c1C(F)(F)F` (atropisomer, axis not shown) [Example 82b, 5-((R)-1-((R)-9-(6-amino-4-methyl-3-(trifluoromethyl)pyridin-2-yl)-8-chloro-2-(((R)-3,3-difluoro-1-azabicyclo[3.2.0]heptan-5-yl)methoxy)-10-fluoro-5,6-dihydro-4H-[1,4]oxazepino[5,6,7-de]quinazolin-4-yl)ethyl)pyrimidin-4-amine], the IC50 was found to be 0.12 nM at KRas(G12V); 11 nM with SW480 cells (Homo sapiens, SW480, SW480); 0.224 nM against KRas; 7200 nM in the assay on PC-9 cells (Homo sapiens, PC-9, PC9).

As for `Cc1cc(N)nc(-c2c(Cl)c3c4c(nc(OC[C@@H]5CC[C@H]6COCCN65)nc4c2F)N([C@H](C)c2cncnc2N)CCO3)c1C(F)(F)F` (atropisomer, axis not shown; (aS)) [Example 102a, 5-((R)-1-((R)-9-(6-amino-4-methyl-3-(trifluoromethyl)pyridin-2-yl)-8-chloro-10-fluoro-2-(((6S,8aS)-hexahydro-1H-pyrrolo[2,1-c][1,4]oxazin-6-yl)methoxy)-5,6-dihydro-4H-[1,4]oxazepino[5,6,7-de]quinazolin-4-yl)ethyl)pyrimidin-4-amine], the IC50 was found to be 0.094 nM against KRas(G12V); 19 nM with SW480 cells (Homo sapiens, SW480, SW480); 0.115 nM on KRas; 2200 nM in the assay with PC-9 cells (Homo sapiens, PC-9, PC9).

As for `CC(=O)N1CCN2[C@H](COc3nc4c5c(c(Cl)c(-c6nc(N)cc(C)c6C(F)(F)F)c(F)c5n3)OCCN4[C@H](C)c3cccnc3N)CC[C@H]2C1` (atropisomer, axis not shown; (aS)) [Example 123a, 1-((6S,8aS)-6-((((R)-9-(6-amino-4-methyl-3-(trifluoromethyl)pyridin-2-yl)-4-((R)-1-(2-aminopyridin-3-yl)ethyl)-8-chloro-10-fluoro-5,6-dihydro-4H-[1,4]oxazepino[5,6,7-de]quinazolin-2-yl)oxy)methyl)hexahydropyrrolo[1,2-a]pyrazin-2(1H)-yl)ethan-1-one], the IC50 at KRas(G12V) stood at 0.13 nM; in the assay on SW480 cells (Homo sapiens, SW480, SW480), 30 nM; on KRas it was 0.15 nM; in the assay on PC-9 cells (Homo sapiens, PC-9, PC9), 6500 nM.

Take `Cc1cc(N)nc(-c2c(Cl)c3c4c(nc(OC[C@H]5CN(C)CCO5)nc4c2F)N([C@H](C)c2cccnc2N)CCO3)c1C(F)(F)F` (atropisomer, axis not shown) [Example 124, 6-((R)-4-((R)-1-(2-aminopyridin-3-yl)ethyl)-8-chloro-10-fluoro-2-(((R)-4-methylmorpholin-2-yl)methoxy)-5,6-dihydro-4H-[1,4]oxazepino[5,6,7-de]quinazolin-9-yl)-4-methyl-5-(trifluoromethyl)pyridin-2-amine]: the IC50 at KRas(G12V) turned out to be 0.1 nM; with SW480 cells (Homo sapiens, SW480, SW480), 70 nM; against KRas it was 0.204 nM; with PC-9 cells (Homo sapiens, PC-9, PC9) it was 2700 nM.

`Cc1cc(N)nc(-c2c(Cl)c3c4c(nc(OC[C@@]56CCCN5C[C@H](F)C6)nc4c2F)N([C@H](C)c2cccnc2N)CCO3)c1C(F)(F)F` (atropisomer, axis not shown; (aS)) [Example 48, 6-(4-((R)-1-(2-aminopyridin-3-yl)ethyl)-8-chloro-10-fluoro-2-(((2R,7aS)-2-fluoro-hexahydro-1H-pyrrolizin-7a-yl)methoxy)-5,6-dihydro-4H-[1,4]oxazepino[5,6,7-de]quinazolin-9-yl)-4-methyl-5-(trifluoromethyl)pyridin-2-amine]: the IC50 came out at 0.04 nM against KRas(G12V), 1.4 nM with SW480 cells (SW480), 0.091 nM against KRas and 1500 nM in the assay with PC-9 cells (PC9).

Take `Cc1cc(N)nc(-c2cc3ncnc4c3c(c2Cl)OCCN4[C@@H](C)c2cccnc2N)c1C(F)(F)F` [Example 18, (S)-6-(4-(1-(2-aminopyridin-3-yl)ethyl)-8-chloro-5,6-dihydro-4H-[1,4]oxazepino[5,6,7-de]quinazolin-9-yl)-4-methyl-5-(trifluoromethyl)pyridin-2-amine]: the IC50 against KRas(G12V) was determined as 35 nM; in the assay with SW480 cells (Homo sapiens, SW480, SW480), 20000 nM; on KRas, 200 nM; in the assay with PC-9 cells (Homo sapiens, PC-9, PC9) it was 20000 nM.

Turning to `Cc1cc(N)nc(-c2c(Cl)c3c4c(nc(OCC56CCCN5CCC6)nc4c2F)N([C@H](C)c2cccnc2N)CCO3)c1C(F)(F)F` (atropisomer, axis not shown) [Example 147, 6-((R)-4-((R)-1-(2-aminopyridin-3-yl)ethyl)-8-chloro-10-fluoro-2-((tetrahydro-1H-pyrrolizin-7a(5H)-yl)methoxy)-5,6-dihydro-4H-[1,4]oxazepino[5,6,7-de]quinazolin-9-yl)-4-methyl-5-(trifluoromethyl)pyridin-2-amine], the IC50 at KRas(G12V) worked out at 0.06 nM; with SW480 cells (Homo sapiens, SW480, SW480) it was 44 nM; at KRas, 0.18 nM; with PC-9 cells (Homo sapiens, PC-9, PC9) it was 1300 nM.

In the case of `Cc1cc(N)nc(-c2c(Cl)c3c4c(nc(OC[C@H]5C[C@@H]6C[N@@]5CCO6)nc4c2F)N([C@H](C)c2cccnc2N)CCO3)c1C(F)(F)F` (atropisomer, axis not shown) [Example 92b, 6-((R)-2-(((1R,5R,7R)-4-oxa-1-azabicyclo[3.2.1]octan-7-yl)methoxy)-4-((R)-1-(2-aminopyridin-3-yl)ethyl)-8-chloro-10-fluoro-5,6-dihydro-4H-[1,4]oxazepino[5,6,7-de]quinazolin-9-yl)-4-methyl-5-(trifluoromethyl)pyridin-2-amine], the half-maximal inhibitory concentration (IC50) against KRas(G12V) amounted to 0.31 nM; in the assay on SW480 cells (Homo sapiens, SW480, SW480) it was 700 nM; at KRas, 1.89 nM; with PC-9 cells (Homo sapiens, PC-9, PC9) it was 6000 nM.

`CNc1cnc(N)c([C@@H](C)N2CCOc3c(Cl)c(-c4nc(N)cc(C)c4C(F)(F)F)c(F)c4nc(OC[C@@]56CCCN5C[C@H](F)C6)nc2c34)c1` (atropisomer, axis not shown; (aS)) [Example 79, 3-((R)-1-((R)-9-(6-amino-4-methyl-3-(trifluoromethyl)pyridin-2-yl)-8-chloro-10-fluoro-2-(((2R,7aS)-2-fluorotetrahydro-1H-pyrrolizin-7a(5H)-yl)methoxy)-5,6-dihydro-4H-[1,4]oxazepino[5,6,7-de]quinazolin-4-yl)ethyl)-N^5-methylpyridine-2,5-diamine]: the IC50 is 0.22 nM on KRas(G12V); 2.4 nM in the assay on SW480 cells (Homo sapiens, SW480, SW480); 0.34 nM against KRas; 3100 nM in the assay with PC-9 cells (Homo sapiens, PC-9, PC9).

Turning to `Cc1cc(N)nc(-c2cc3ncnc4c3c(c2Cl)OCCN4[C@H](C)c2cccnc2N)c1C(F)(F)F` [Example 5, (R)-6-(4-(1-(2-aminopyridin-3-yl)ethyl)-8-chloro-5,6-dihydro-4H-[1,4]oxazepino[5,6,7-de]quinazolin-9-yl)-4-methyl-5-(trifluoromethyl)pyridin-2-amine], the IC50 against KRas(G12V) came out at 1.5 nM; in the assay with SW480 cells (Homo sapiens, SW480, SW480), 1500 nM; at KRas, 9.2 nM; in the assay with PC-9 cells (Homo sapiens, PC-9, PC9), 9000 nM.

On to `C[C@H](c1cccnc1N)N1CCOc2c(Cl)c(-c3c(F)ccc4cnn(C)c34)c(F)c3nc(OC[C@@]45CCCN4C[C@H](F)C5)nc1c23` (single isomer, unassigned) [Example 105a], for which the IC50 is 0.08 nM at KRas(G12V); 16 nM in the assay on SW480 cells (Homo sapiens, SW480, SW480); 0.23 nM on KRas; 7100 nM in the assay with PC-9 cells (Homo sapiens, PC-9, PC9).

As for `Cc1cc(N)nc(-c2cc3nc(OC[C@@]45CCCN4C[C@H](F)C5)nc4c3c(c2Cl)OCCN4Cc2ccn[nH]2)c1C(F)(F)F` [Example 1, 6-(4-((1H-pyrazol-5-yl)methyl)-8-chloro-2-(((2R,7aS)-2-fluorotetrahydro-1H-pyrrolizin-7a(5H)-yl)methoxy)-5,6-dihydro-4H-[1,4]oxazepino[5,6,7-de]quinazolin-9-yl)-4-methyl-5-(trifluoromethyl)pyridin-2-amine], the IC50 worked out at 9 nM against KRas(G12V); 12000 nM in the assay with SW480 cells (Homo sapiens, SW480, SW480); 46 nM at KRas; 18000 nM in the assay on PC-9 cells (Homo sapiens, PC-9, PC9).

As for `Cc1cc(N)nc(-c2c(Cl)c3c4c(nc(OC[C@H]5C[C@@H](O)C5)nc4c2F)N([C@H](C)c2cccnc2N)CCO3)c1C(F)(F)F` (atropisomer, axis not shown) [Example 146, (1S,3s)-3-((((R)-9-(6-amino-4-methyl-3-(trifluoromethyl)pyridin-2-yl)-4-((R)-1-(2-aminopyridin-3-yl)ethyl)-8-chloro-10-fluoro-5,6-dihydro-4H-[1,4]oxazepino[5,6,7-de]quinazolin-2-yl)oxy)methyl)cyclobutan-1-ol], the IC50 stood at 0.61 nM on KRas(G12V); 510 nM with SW480 cells (Homo sapiens, SW480, SW480); 1.5 nM at KRas; 19000 nM with PC-9 cells (Homo sapiens, PC-9, PC9).

One may read the IC50 as the point on the concentration scale where inhibition reaches its midpoint.
